{"source": "patent US9487561B2", "about": "“Biologically active complex and its preparation” (HAMLET PHARMA AB, priority 2010, dated 2016)", "molecules": {"B1": {"name": "HAMLET (protein, UniProt P00709 20-142, looked up)", "Alpha-lactalbumin": "KQFTKCELSQLLKDIDGYGGIALPELICTMFHTSGYDTQAIVENNESTEYGLFQISNKLWCKSSQVPQSRNICDISCDKFLDDDITDDIMCAKKILDIKGIDYWLAHKALCTEKLEQWLCEKL", "modifications": "oleic acid complex"}}, "key": {"tumor cells": {"test_system": "tumor cells", "test": "ion fluxes (Ca^2+, K^+, Na^+) quantified by fluorometry", "assay_type": "cell-based", "settings": "for effect of inhibitor on HAMLET Ca^2+ fluxes: FIG. 1B", "procedure": "FIG. 1. […] (A, upper panels) Bright-field micrographs showing glass-adherent egg yolk vesicles before and after a 40-minute exposure to HAMLET, α-lactalbumin (HLA) or oleic acid (OA). Morphology was recorded by differential interference contrast microscopy. Scale bar […]. […] (A, lower panels) Effect of HAMLET on PMVs from lung carcinoma cells. PMVs on glass-bottom dishes were exposed to HAMLET, HLA or OA and stained with Nile red for confocal microscopy. […] As a control PMVs from healthy, differentiated cells on glass-bottom dishes were also exposed to HAMLET and stained with Nile red.\nFIG. 7. Ion Fluxes. (A) Ion fluxes induced by HAMLET (35 μM) or it constituents (35 μM All-ala α-lactalbumin or 175 μM sodium oleate) were quantified by fluorometry, as described. […] (B) The global transcriptional response to HAMLET was studied by microarray and the top 3000 genes by variance visualized in a Heatmap. […] Darker bands=high expression, lighter bands=low.\nThe FLUXOR™ potassium (K^+) channel assay was performed on the TECAN infinite F200 (Tecan Group, Switzerland), according to the manufacturer's instructions (Invitrogen). Briefly, this involved FLUXOR™ loading buffer (Hank's Balanced Saline Solution, (HBSS) buffered with 20 mM HEPES and pH adjusted to 7.4 with NaOH. POWERLOAD™ concentrate and water-soluble Probenecid were used respectively to enhance the dye solubility and retention, respectively. Media were removed from the cell plates manually, and 80 μL of loading buffer containing the FLUXOR™ dye mix was applied to each well. Once inside the cell, the nonfluorescent AM ester form of the FLUXOR™ dye is cleaved by endogenous esterases into a thallium-sensitive indicator. The dye was loaded for 60 minutes at room temperature and then removed with the supernatant. After washing with dye-free PBS buffer, a final volume of 80 μL assay buffer containing water-soluble probenecid was added. Cells received one of the following channel inhibitors: 3.3 μL per well of 30 mM amiloride, 3.0 μL of 32 mM BaCl2, 1.8 μL of 5.4 mM gadolinium, 3 μL 3.2 mM tetrandrine and 2.3 μL of 2.6 mM ruthenium red, and were then incubated at room temperature (23-25° C.) for 30 minutes to allow equilibration of the test compounds. Prior to injection, stimulation buffer was prepared from the chloride-free buffer and thallium reagents provided in the kit as well as HAMLET, to achieve a final added concentrations of 2 mM free Tl+ and 35 μM HAMLET after 1:5 dilution upon injection of the stimulus buffer onto cells that had been loaded with FLUXOR™ dye."}, "[1]": {"test_system": "eIF2α, ATF6, XBP1, CHOP in A549 tumor cells", "test": "ER stress response (Western blot, XBP1 splicing PCR, RT-PCR)", "assay_type": "cell-based, human", "settings": "for effect of ion channel inhibitor on HAMLET-induced eIF2α phosphorylation (ER stress): lung carcinoma cells, 30 minutes pretreatment, HAMLET 21 and 35 μM, 1 hour; for XBP1 splicing: PCR", "procedure": "(§1) RNA was prepared with the RNeasy Mini Kit (QIAGEN, Hilden, Germany) and treated with DNAse I (QIAGEN). cDNA was synthesized using the Superscript III first strand RT-PCR system (Invitrogen). PCR of spliced and un-spliced XBP1 was as described (Yoshida et al., 2001, Cell 107: 881-891). Real-time PCR was performed on a Rotorgene 2000 instrument (Corbett Life Science, Sydney, Australia) using TaqMan Gene Expression Assays (Applied BioSystems) CHOP/DDIT3 (Hs01090850), IL6 (Hs00985639), IL8 (Hs00174103) and TNFα (Hs00174128). GAPDH (Hs99999905_m1) was used for normalization.\n(§2) Equal volumes of lysates were separated by SDS-PAGE on 4-12% Bis-Tris gels (Invitrogen) and blotted onto PVDF membranes. For other Western blots, 200,000 cells were allowed to adhere overnight in a 6-well plate. After HAMLET treatment the cells were washed with PBS and lysed in M-PER lysis buffer (Pierce) containing Complete protease inhibitor cocktail and PhosSTOP phosphatase inhibitor cocktail (both from Roche). The detached cells were collected by centrifugation. The lysates were cleared by centrifugation and protein concentrations were measured using the DC Protein Assay (Bio-Rad Laboratories, Hercules, Calif.). Equal amounts of protein were separated by SDS-PAGE on 4-12% Bis-Tris gels (Invitrogen) and blotted onto PVDF membranes (GE Healthcare). Membranes were saturated with BSA (GAPDH) or nonfat dry milk (phospho-p38, p38, phospho-ERK1/2, ERK1/2) and incubated with anti-p38, anti-phospho-p38, anti-ERK1/2, anti-phospho-(Thr202/Tyr204)-p44/42 (all 1:500-1000, Cell Signaling Technology), anti-ATF6 (1:1000, IMG-273, Imgenex), anti-phospho-eIF2α (Ser51), (1:500, Cell Signaling Technology) or anti-GAPDH (1:3000-5000, Novus Biologicals) antibodies followed by horseradish peroxidase-conjugated anti-rabbit (1:1000, DakoCytomation, Glostrup, Denmark) or anti-mouse (1:40000-50000, Novus Biologicals) antibodies for staining. Bound antibodies were detected with ECL Plus Western Blotting Reagent (GE Healthcare, Little Chalfont, UK) and GelDoc equipment (Bio-Rad Laboratories, Hercules, Calif.). If required, membranes were stripped with Restore Western Blot Stripping Buffer (Pierce, Rockford, Ill.), blocked and reprobed with new antibodies. MAP kinase phosphorylation was analyzed on a Human Phospho-MAPK array (Proteome Profiler Array, R&D Systems) as per the manufacturer's instruction. Band and spot intensities were quantified using ImageJ (Abramoff et al., July 2004, Biophotonics International). Cytokine quantification (IL6, IL8, TNFα) was performed on an […] 1000 immunoassay system (Siemens Diagnostics).\nDisturbances in ER Ca^2+ regulation can impair protein folding in the ER by inactivation of Ca^2+ dependent chaperones, such as GRP78 and calreticulin. An increase in unfolded proteins may activate a conserved series of signal-transduction events. Spanning the ER membrane, three ER stress sensors PERK, ATF6 and IRE1 are activated by an overload of unfolded proteins. Upon PERK activation, eIF2α is phosphorylated, shutting down protein translation to avoid unfolded protein overload. To examine if HAMLET disturbs the ER and triggers an unfolded protein response, we analyzed the transcription of ER stress-induced genes."}, "[2]": {"test_system": "IL-6, IL-8, TNFα in healthy, differentiated cells", "test": "innate immune response (qRT-PCR, cytokine quantification)", "assay_type": "cell-based, human", "procedure": "as §1, §2\nTo examine the molecular basis of the difference in HAMLET susceptibility between carcinoma cells and healthy, differentiated cells, transcriptional profiles were compared.\nTo further examine if the innate immune response in healthy, differentiated cells requires functional ion channels, the expression of IL-6, IL-8 and TNFα mRNA was quantified in cells pretreated with amiloride and BaCl2, using qRT-PCR."}, "[3]": {"test_system": "A549 lung carcinoma cells", "test": "cell death assay (trypan blue exclusion, ATP levels)", "assay_type": "cell-based, human", "settings": "24 hours, control cells without inhibitor or pretreated with inhibitor"}, "[4]": {"settings": "35 μM All-ala α-lactalbumin or 175 μM sodium oleate, FIG. 7A"}}}
{"molecule": "[Ba+2].[Cl-].[Cl-]", "note": "[BaCl2, barium chloride]", "values": [{"measurement": "effect of inhibitor on HAMLET Ca^2+ fluxes", "setting": "tumor cells", "value": "inhibited"}, {"measurement": "effect of ion channel inhibitor on HAMLET-induced eIF2α phosphorylation (ER stress)", "setting": "[1]", "value": "reduced eIF2α phosphorylation"}, {"measurement": "effect of inhibitor on HAMLET induced TNFα expression", "setting": "[2]", "value": "caused a reduction"}, {"measurement": "effect of inhibitor on IL-6 and IL-8 response to HAMLET", "setting": "[2]", "value": "did not inhibit"}, {"measurement": "cells died after HAMLET", "setting": "[3]", "value": 13, "unit": "%"}]}
{"molecule": "NC(N)=NC(=O)c1nc(Cl)c(N)nc1N", "note": "[amiloride, 3,5-diamino-6-chloro-N-(diaminomethylene)pyrazine-2-carboxamide]", "values": [{"measurement": "effect of inhibitor on HAMLET Ca^2+ fluxes", "setting": "tumor cells", "value": "inhibited"}, {"measurement": "effect of ion channel inhibitor on HAMLET-induced eIF2α phosphorylation (ER stress)", "setting": "[1]", "value": "reduced eIF2α phosphorylation"}, {"measurement": "effect of inhibitor on HAMLET-induced IL-6 mRNA", "setting": "[2]", "value": "abolished"}, {"measurement": "cells died after HAMLET", "setting": "[3]", "value": 8, "unit": "%"}]}
{"molecule": "CCCCCCCC/C=C\\CCCCCCCC(=O)[O-].[Na+]", "note": "[oleate, sodium oleate]", "values": [{"measurement": "K^+ fluxes", "setting": "tumor cells; [4]", "value": "triggered K^+ fluxes"}, {"measurement": "Na^+ or Ca^2+ fluxes", "setting": "tumor cells; [4]", "value": "low"}, {"measurement": "XBP1 splicing", "setting": "[1]", "value": "caused splicing of XBP1"}]}
{"molecule": "B1", "values": [{"measurement": "increase of CHOP mRNA", "setting": "[1]; 3 hours", "value": 30, "unit": "fold"}, {"measurement": "eIF2α phosphorylation", "setting": "[1]; A549 tumor cells", "value": "time- (30 minutes) and dose-dependent"}, {"measurement": "XBP1 splicing", "setting": "[1]", "value": "detected"}, {"measurement": "ATF6 (Western blotting)", "setting": "[1]; three hours of HAMLET treatment", "value": "increase in cleaved as well as full-length ATF6"}, {"measurement": "secreted protein levels of IL-6, IL-8, and TNFα", "setting": "[2]", "value": "clear increase in secreted protein levels"}, {"measurement": "increase in IL-6 mRNA", "setting": "[2]; HAMLET 21 μM, 1 hour, qRT-PCR", "value": 30, "unit": "fold"}, {"measurement": "cells died after HAMLET", "setting": "[3]", "value": 44, "unit": "%"}]}
